# Measurements: patent publication US20090175795A1, “CHIMERIC THERAPEUTIC AGENTS” (Amprotein Corporation, priority 2005, published 2009)
# Key:
# [1] = effect on body weight, 7-day ip injection; type: in vivo, mouse; conditions: for Body weight (X ± SD): n = 5, in g (unit assumed)
# Experimental: The effects of GLP1-Fc-leptin on body weight were studied. Mice were injected with 0.1 mg of GLP1-Fc-leptin or human IgG1 Fc fragment in the same manner described above daily for seven days. At days 1 and 7, the body weight of each […] was measured and recorded. […] The body weight was measured on days 1, 4, and 7. Effects of leptin on body weight were studied in the same manner described above. More specifically, mice were injected ip. with 0.1 mg/mouse of human recombinant leptin (R&D Systems, Cat# 398-LP) or human IgG Fc twice a day (9 am and 5 pm) for 7 days.
# blood glucose [2] = experiment: intraperitoneal glucose tolerance test (ip GTT) in mice; type: in vivo, mouse; design: Blood glucose (X ± SD): unit not given here; conditions: for effect on blood glucose levels in ip GTT: P<0.05
# Experimental: (§1) First, intraperitoneal glucose tolerance test (ip GTT) was conducted to test GLP -Fc-leptin's action on glucose-dependent insulin secretion. Briefly, mouse blood glucose was measured using one-touch blood glucose strips. A blood sample was obtained from a mouse through tail bleeding. Then, 0.04, 0.1, or 0.2 mg of GLP1-Fc-leptin or control protein human IgG1 Fc fragment were injected ip. Immediately after the injections, 0.2 ml of saturated glucose water solution was injected ip into the mouse. One and two hours later, another blood sample was collected in the same manner for glucose measurement.
# blood glucose [3] = experiment: IP glucose tolerance test repeated at day-1 and day-2 after one injection (long-term effect); type: in vivo, mouse; conditions: for Blood glucose (X ± SD): one injection 0.2 mg, n = 5
# Experimental: as §1, with “measurement. […] The results are summarized in Tables 1-4 below: The above experiment was repeated with GLP1-Fc-leptin (0.2 mg) at day-1 before the glucose tolerance test. A IP glucose tolerance test was conducted twice at day-1 and day-2 respectively.” for “measurement.”
# blood glucose [4] = experiment: GTT assay in rabbits; type: in vivo, rabbit; conditions: small numbers
# Experimental: (§2) Similarly GTT assays were also conducted in rats and rabbits in small numbers. All the results support the inhibition of GLP1-Fc-leptin on blood glucose level.
# blood glucose [5] = experiment: everyday blood glucose level during the 7-day injection period; type: in vivo, mouse; conditions: 0.1 mg daily; for Glucose: one hour after injection, n = 5
# Experimental: In the above experiments, during the 7-day period, blood glucose levels of each mouse were measured and recorded on each day one hour after injection of GLP1-Fc-leptin (0.1 mg) or IgG1 Fc fragment everyday in the morning.
# blood glucose [6] = experiment: GTT assay in rats; type: in vivo, rat; conditions: small numbers
# Experimental: as §2
substance,measurement,setting,value
"GLP1-Fc-leptin: fusion protein GLP-1-3xGly-IgG1 Fc-leptin (SEQ ID NO:5), expressed in CHO cells",body weight lost,"[1]; 0.1 mg daily for seven days, at day 7, p<0.05",11.3%
same,Body weight (X ± SD),"[1]; 0.1 mg ip daily for seven days, day 1",24.7 ± 1.3
same,Body weight (X ± SD),"[1]; 0.1 mg ip daily for seven days, day 4",23.7 ± 2.2
same,Body weight (X ± SD),"[1]; 0.1 mg ip daily for seven days, day 7",21.9 ± 1.4
same,Blood glucose (X ± SD),"blood glucose [2]; 0.04 mg ip, 1 hour after IP glucose injection, n = 5",275.8 ± 154.0
same,Blood glucose (X ± SD),"blood glucose [2]; 0.04 mg ip, 2 hour after IP glucose injection, n = 5",98.0 ± 22.7
same,Blood glucose (X ± SD),"blood glucose [2]; 0.04 mg ip, before IP glucose injection, n = 5",98.8 ± 29.2
same,Blood glucose (X ± SD),"blood glucose [2]; 0.1 mg ip, 1 hour after IP glucose injection, n = 4",108.8 ± 44.0
same,Blood glucose (X ± SD),"blood glucose [2]; 0.1 mg ip, 2 hour after IP glucose injection, n = 4",83.0 ± 21.6
same,Blood glucose (X ± SD),"blood glucose [2]; 0.1 mg ip, before IP glucose injection, n = 4",67.3 ± 32.1
same,effect on blood glucose levels in ip GTT,blood glucose [2]; 0.1 mg,significantly inhibited
same,Blood glucose (X ± SD),"blood glucose [2]; 0.2 mg ip, 1 hour after IP glucose injection, n = 5",113.0 ± 16.2
same,Blood glucose (X ± SD),"blood glucose [2]; 0.2 mg ip, 2 hour after IP glucose injection, n = 5",82.0 ± 6.2
same,Blood glucose (X ± SD),"blood glucose [2]; 0.2 mg ip, before IP glucose injection, n = 5",84.4 ± 20.5
same,effect on blood glucose levels in ip GTT,blood glucose [2]; 0.2 mg,significantly inhibited
same,Blood glucose (X ± SD),"blood glucose [3]; Day-1 GTT, 1 hour after IP glucose injection",113.0 ± 16.2
same,Blood glucose (X ± SD),"blood glucose [3]; Day-1 GTT, 2 hour after IP glucose injection",82.0 ± 6.2
same,Blood glucose (X ± SD),"blood glucose [3]; Day-1 GTT, before IP glucose injection",84.4 ± 20.5
same,Blood glucose (X ± SD),"blood glucose [3]; Day-2 GTT, 1 hour after IP glucose injection",106.2 ± 25.7
same,Blood glucose (X ± SD),"blood glucose [3]; Day-2 GTT, 2 hour after IP glucose injection",95.8 ± 21.1
same,Blood glucose (X ± SD),"blood glucose [3]; Day-2 GTT, before IP glucose injection",92.6 ± 25.3
same,duration of inhibition of blood glucose level,blood glucose [3]; one injection of 0.2 mg,at least two
same,effect on blood glucose level in GTT,blood glucose [4],inhibition
same,everyday blood glucose levels versus IgG1 Fc fragment,blood glucose [5]; 7-day period,lower blood glucose levels
same,Glucose,blood glucose [5]; day 1,98.0 ± 13.2 mg/dL
same,Glucose,blood glucose [5]; day 2,119.0 ± 25.8 mg/dL
same,Glucose,blood glucose [5]; day 3,91.4 ± 44.6 mg/dL
same,Glucose,blood glucose [5]; day 4,116.0 ± 34.3 mg/dL
same,Glucose,blood glucose [5]; day 5,95.6 ± 33.9 mg/dL
same,Glucose,blood glucose [5]; day 6,102.3 ± 25.7 mg/dL
same,Glucose,blood glucose [5]; day 7,160.4 ± 18.6 mg/dL
same,effect on blood glucose level in GTT,blood glucose [6],inhibition
"Human leptin: human recombinant leptin (R&D Systems, Cat# 398-LP)",weight loss relative to GLP1-Fc-Leptin,[1]; 0.1 mg/mouse ip twice a day for 7 days,less than half of the weight loss that GLP1-Fc-Leptin induced
same,Body weight (X ± SD),"[1]; leptin study, 0.1 mg/mouse ip twice a day for 7 days, day 1",20.9 ± 2.0
same,Body weight (X ± SD),"[1]; leptin study, 0.1 mg/mouse ip twice a day for 7 days, day 4",20.7 ± 2.3
same,Body weight (X ± SD),"[1]; leptin study, 0.1 mg/mouse ip twice a day for 7 days, day 7",20.1 ± 2.1
same,weight loss when used alone,"[1]; our animal model, pilot experiments, used alone",did not induce significant weight loss
